One compound from ChEMBL document CHEMBL1147374, “Chemical constituents of Aristolochia rigida and mutagenic activity of aristolochic acid IV” (J Nat Prod, 1993) can be followed below.

What all share (details): salmonella enterica subsp. enterica serovar typhimurium
Series [1] concerns Salmonella typhimurium. Put plainly: Mutagenic activity in Salmonella Typhimurium TA100 assessed as increase in number of histidine revertants up to 100 ug/plate after 48 hrs in presence of rat S9 liver homogenate by Ames test. Type of series: toxicity, organism-based, Liver S9 fraction. A general note: The Ames test detects mutagens through reverse mutation in bacteria.
For series [2], the system named is Salmonella typhimurium. Kind of series: Toxicity in Salmonella Typhimurium TA100 at 500 ug/plate. The series is classed as organism-based.
The test system of series [3] is Salmonella typhimurium. Put plainly: Toxicity in Salmonella Typhimurium TA100 up to 100 ug/plate. Type of series: organism-based.
Series [4] has as its system Salmonella typhimurium. Put plainly: Mutagenic activity in Salmonella typhimurium TA100 assessed as number of histidine revertants after 48 hrs in presence of phenobarbital treated rat S9 liver homogenate by Ames test. Type of series: toxicity, organism-based, Liver S9 fraction.

For `COc1cc(OC)c2cc([N+](=O)[O-])c3c(C(=O)O)cc4c(c3c2c1)OCO4` [ARISTOLOCHIC ACID IV], the Activity entry with Salmonella typhimurium [1] is on record as “Active”; in the series on Salmonella typhimurium [2], “Toxic”; in the series on Salmonella typhimurium [3], “Non-toxic”; in the series on Salmonella typhimurium [4], “Dose-dependent effect”.
